For the assay, the system named is TRPM8. Briefly: Gene expression custom microarray, human skin fibroblasts (Example 1): TRPM8. The class given is cell-based. Conditions: 24 hr; for fold induction at 10 µM: Skin fibroblast, read-out: TRPM8↑ gene expression, fold increase or decrease vs untreated cells. The text has this: Cell cultures: A human skin fibroblast cell culture (or cultures) was obtained through the Coriell Cell Repository from the National Institute on Aging Cell Repository (Camden, N.J.), or Promocell GmbH (Heidelberg, Germany). The initial culture was selected from the following cell lines: AG13066, AG11557, AG11796 or GM03651E. The cell lines were derived from donors as follows:
Experimental phase: When the appropriate quantity of cells had been grown, they were detached as described above, but at the final step were seeded into each well of one or more 6 well dishes. Each well received 2 ml of the cell suspension so they were seeded equally. The dishes were returned to the incubator until 85-95% confluency was reached.
It is at this stage that all wells were rinsed in PBS after aspirating the growth media. The compound(s) to be tested were previously mixed into a suitable solvent (e.g., DMSO or ethanol) that can be diluted to the desired concentration of test compound (10 μl) in the culture wells without exceeding maximum solvent concentrations and adversely effecting cell viability, and mixed with basal media. NOTE: Standard maximum levels of solvent are 0.1% for DMSO and 0.5% for ETOH. The concentration of each test compound is found in Tables 1 & 2.
Every 2 wells on the 6 well plate served as a biological replicate for the purposes of RNA isolation and genetic expression evaluations making each 6 well dish an n=3 for the test compound(s) contained in the media. Negative control plates (no test compound(s) and only basal media) were also generated. The plates were returned to the incubator for 24 hrs.
At the end of the 24 hr time period, the plates were removed from the incubator, the test media aspirated, and the cells rinsed with PBS. RNA isolation is performed using the BioRad Aurum Total RNA Mini Kit (Hercules, Calif.) per manufacturer's protocol; which is described, in brief, below: • Add 350 μl of lysis buffer to each well. Pipet multiple times to ensure thorough lysis. Add lysed cells to the collection tube. • Add 350 μl of 70% ETOH to the collection tube and mix thoroughly. • Pipet the generated lysate onto the spin column placed in a new 2 ml tube. Centrifuge for 30 sec between 8,000 and 10,000 g. • Place the spin column containing the now bound RNA, in a new 2 ml tube. Add 700 μl of low stringency wash solution to the spin column. Centrifuge for 30 sec between 8,000 and 10,000 g. Discard the flow through and replace spin column. • Add 80 μl of DNase I dilution to the spin column and incubate at room temperature for 15 minutes. • Add 700 μl of high stringency wash solution to the column and centrifuge for 30 sec between 8,000 and 10,000 g. Discard flow through. • Add 700 μl of low stringency wash solution to the column and centrifuge for 60 sec between 8,000 and 10,000 g. Discard flow through. • Centrifuge for 2 minutes to remove residual wash solution. • Transfer spin column to new 1.5 ml collection tube and add 80 μl of elution solution to the column. Allow 1 minute for saturation of the membrane and then centrifuge for 2 minutes to complete the RNA elution. • Quantify the quantity of RNA and store at −20 C° until use (no more than 1 month)
The genes tested were: • Cannabinoid receptor 1 (CB1(CNR1)) • Cannabinoid receptor 2 (CB2 (CNR2)) • Fatty acid amide hydrolase (FAAH) • Monoacylglycerol lipase (MGLL, i.e., MAGL) • Peroxisome proliferator-activated receptor gamma (PPARG) • Nuclear factor kappa-light-chain-enhancer of activated B cells (NFκβ) • Interleukin 1 Alpha (IL1alpha) • Cyclooxygenase 1 (PTGS1, i.e., COX1) • Transient receptor potential cation channel subfamily A member 1 (TRPA1) • Transient receptor potential cation channel subfamily V member 1 (TRPV1) • Transient receptor potential cation channel subfamily M member 8 (TRPM8) • Hemoglobin Subunit Beta (HBB) REFERENCE GENE • Ribosomal Protein L13a (RPL13A) REFERENCE GENE […]

For the molecule `CCCCCCCCCCCCCCCC(=O)NCCO` [N-palmitoylethanolamide], the “TRPM8↑ gene expression, fold increase or decrease vs untreated cells” value (10 uM) stood at 5.1 fold.

`CC(C)[C@]12O[C@H]1[C@@H]1O[C@]13[C@]1(O[C@H]1C[C@H]1C4=C(CC[C@@]13C)C(=O)OC4)[C@@H]2O` [Triptolide]: the fold induction at 10 µM turned out to be 47.6.

`C=C(C)[C@@H]1CCC(C)=C[C@H]1c1c(O)cc(CCCCC)cc1O` [CBD, cannabidiol, reference compound]: the fold induction at 10 µM worked out at 6.1.

For the origin of these results see US20220202739A1, “ENDOCANNABINOID MIMETIC AND ANTI-INFLAMMATORY COMPOUND CONTAINING COMPOSITIONS, METHODS OF PREPARATION AND USES THEREOF” (priority 2019, published 2022).
